Reference: patent publication US20230128114A1, “METHODS AND COMPOSITIONS FOR TREATING OR PREVENTING AN INFLAMMATORY CONDITION” (priority 2020, published 2023)

Assay: Solubility of formulations for in vivo analysis (visual observation)
Format: physicochemical
Source text: Cannabidiol (CBD) and hydroxychloroquine (HCQ), were purchased by Pharmacology Discovery Services Taiwan, Ltd. The formulations are summarised in Table 3.

C[C@@H]1C[C@H]2[C@@H]3CCC4=CC(=O)C=C[C@]4(C)[C@@]3(F)[C@@H](O)C[C@]2(C)[C@@]1(O)C(=O)CO [Dexamethasone]
Solubil.: I
